Assay results: publication PMC4809247 (Journal of medicinal chemistry, 2015)

How the values were obtained:
marble burying [1] = details: cited from earlier work
immobility time [2] = details: cited from earlier work
rat mGlu2 [3] = molecular target: T1, rat mGlu2 (Rattus norvegicus, UniProt P31421); details: cited from earlier work
rat mGlu5 [4] = molecular target: T2, rat mGlu5 (Rattus norvegicus, UniProt P31424); details: cited from earlier work
rat mGlu2 [5] = molecular target: T1, rat mGlu2; assay: mGlu2 calcium mobilization assay; assay type: cell-based; details: full CRC
[6] = Rat cassette PK study, IV dosing; details: in vivo, 0.2 mg/kg
rat mGlu5 [7] = molecular target: T2, rat mGlu5; assay: Calcium mobilization mGlu5 assay; assay type: cell-based; details: calcium mobilization; average of n ≥ 3 (n = 2 where marked)
rat mGlu3 [8] = molecular target: T3, rat mGlu3 (Rattus norvegicus, UniProt P31422); details: calcium mobilization; average of n ≥ 3
[9] = Intrinsic clearance in rat liver microsomes; assay type: in vitro ADME; details: predicted hepatic clearance based on intrinsic clearance in rat liver microsomes
rat mGlu3 [10] = molecular target: T3, rat mGlu3; assay: cell-based
Mouse IP PK time course = assay type: in vivo; details: 10 mg/kg dose in marble burying study, estimated from DMPK data
[11] = test system: panel of 68 clinically relevant GPCRs, ion channels, kinases, and transporters; assay type: binding; details: 10 μM; 68 targets
marble burying [12] = assay: Marble burying assay in mice; details: 56.6 mg/kg; male CD-1 mice; 15 min pretreatment
[13] = Mouse IP single time point tissue distribution; details: in vivo, 10 mg/kg, plasma concentration, 30 min post dose, n = 3
5-HT2B = 5-HT2B (Homo sapiens, UniProt P41595); assay: 5-HT2B functional cell-based assay; details: agonist or antagonist
other mGlus = assay type: cell-based; details: 10 μM compound, fold-shift experiments
immobility time [14] = assay: Forced swim test; assay type: in vivo, rat; details: 56.6 mg/kg (highest dose); male Sprague–Dawley rats; 30 min pretreatment; 6 min session; p < 0.05 vs vehicle
mGlu3 = mGlu3 (Rattus norvegicus, UniProt P31422); details: multiple concentrations of compound
Sequence of mGlu3 (P31422 23-879): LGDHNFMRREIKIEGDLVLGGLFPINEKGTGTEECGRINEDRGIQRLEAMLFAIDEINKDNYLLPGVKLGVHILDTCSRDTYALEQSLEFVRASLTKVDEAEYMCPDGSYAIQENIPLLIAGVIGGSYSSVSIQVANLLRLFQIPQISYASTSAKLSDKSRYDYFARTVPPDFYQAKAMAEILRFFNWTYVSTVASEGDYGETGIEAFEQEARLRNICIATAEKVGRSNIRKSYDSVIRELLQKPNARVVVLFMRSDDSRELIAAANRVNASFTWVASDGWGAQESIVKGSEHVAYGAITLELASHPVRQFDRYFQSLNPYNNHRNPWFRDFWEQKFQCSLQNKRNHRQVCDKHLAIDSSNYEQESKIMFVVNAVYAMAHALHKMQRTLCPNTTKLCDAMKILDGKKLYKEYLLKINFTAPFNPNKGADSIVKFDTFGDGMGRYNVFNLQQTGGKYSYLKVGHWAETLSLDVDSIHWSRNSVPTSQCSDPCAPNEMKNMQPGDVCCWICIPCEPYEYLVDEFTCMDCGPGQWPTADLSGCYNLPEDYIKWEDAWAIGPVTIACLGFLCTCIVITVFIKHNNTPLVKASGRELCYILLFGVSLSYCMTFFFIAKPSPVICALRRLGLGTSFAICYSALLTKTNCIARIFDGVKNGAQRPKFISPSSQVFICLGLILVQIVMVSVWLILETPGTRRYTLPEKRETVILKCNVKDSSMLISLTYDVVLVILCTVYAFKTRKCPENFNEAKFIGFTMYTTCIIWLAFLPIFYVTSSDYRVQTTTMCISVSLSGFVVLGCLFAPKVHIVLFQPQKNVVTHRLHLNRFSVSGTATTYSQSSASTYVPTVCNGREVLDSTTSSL

T3 sequence (P31422 23-879): as above
T1 sequence (P31421 19-872): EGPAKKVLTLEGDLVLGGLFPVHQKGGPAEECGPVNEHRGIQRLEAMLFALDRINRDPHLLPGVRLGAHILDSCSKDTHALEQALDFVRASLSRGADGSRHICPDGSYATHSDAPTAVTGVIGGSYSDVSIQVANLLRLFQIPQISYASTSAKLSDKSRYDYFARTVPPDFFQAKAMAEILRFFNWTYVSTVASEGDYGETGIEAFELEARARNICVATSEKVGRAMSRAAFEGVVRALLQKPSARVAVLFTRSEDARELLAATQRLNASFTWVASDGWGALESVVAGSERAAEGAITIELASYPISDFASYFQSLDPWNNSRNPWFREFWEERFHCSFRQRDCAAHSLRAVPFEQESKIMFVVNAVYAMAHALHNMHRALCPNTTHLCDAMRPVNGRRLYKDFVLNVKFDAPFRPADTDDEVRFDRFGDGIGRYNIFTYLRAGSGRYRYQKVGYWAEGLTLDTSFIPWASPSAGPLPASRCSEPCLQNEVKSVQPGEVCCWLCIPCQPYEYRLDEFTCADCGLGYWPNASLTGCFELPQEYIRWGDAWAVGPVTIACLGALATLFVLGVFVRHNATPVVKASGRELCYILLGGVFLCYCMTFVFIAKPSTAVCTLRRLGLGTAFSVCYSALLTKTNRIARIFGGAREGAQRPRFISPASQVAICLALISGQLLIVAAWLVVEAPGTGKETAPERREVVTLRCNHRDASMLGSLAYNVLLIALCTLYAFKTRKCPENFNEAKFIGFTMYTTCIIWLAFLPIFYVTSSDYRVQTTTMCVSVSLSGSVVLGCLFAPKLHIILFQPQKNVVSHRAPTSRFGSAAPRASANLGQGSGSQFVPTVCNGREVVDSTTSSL
T2 sequence (P31424 21-1203): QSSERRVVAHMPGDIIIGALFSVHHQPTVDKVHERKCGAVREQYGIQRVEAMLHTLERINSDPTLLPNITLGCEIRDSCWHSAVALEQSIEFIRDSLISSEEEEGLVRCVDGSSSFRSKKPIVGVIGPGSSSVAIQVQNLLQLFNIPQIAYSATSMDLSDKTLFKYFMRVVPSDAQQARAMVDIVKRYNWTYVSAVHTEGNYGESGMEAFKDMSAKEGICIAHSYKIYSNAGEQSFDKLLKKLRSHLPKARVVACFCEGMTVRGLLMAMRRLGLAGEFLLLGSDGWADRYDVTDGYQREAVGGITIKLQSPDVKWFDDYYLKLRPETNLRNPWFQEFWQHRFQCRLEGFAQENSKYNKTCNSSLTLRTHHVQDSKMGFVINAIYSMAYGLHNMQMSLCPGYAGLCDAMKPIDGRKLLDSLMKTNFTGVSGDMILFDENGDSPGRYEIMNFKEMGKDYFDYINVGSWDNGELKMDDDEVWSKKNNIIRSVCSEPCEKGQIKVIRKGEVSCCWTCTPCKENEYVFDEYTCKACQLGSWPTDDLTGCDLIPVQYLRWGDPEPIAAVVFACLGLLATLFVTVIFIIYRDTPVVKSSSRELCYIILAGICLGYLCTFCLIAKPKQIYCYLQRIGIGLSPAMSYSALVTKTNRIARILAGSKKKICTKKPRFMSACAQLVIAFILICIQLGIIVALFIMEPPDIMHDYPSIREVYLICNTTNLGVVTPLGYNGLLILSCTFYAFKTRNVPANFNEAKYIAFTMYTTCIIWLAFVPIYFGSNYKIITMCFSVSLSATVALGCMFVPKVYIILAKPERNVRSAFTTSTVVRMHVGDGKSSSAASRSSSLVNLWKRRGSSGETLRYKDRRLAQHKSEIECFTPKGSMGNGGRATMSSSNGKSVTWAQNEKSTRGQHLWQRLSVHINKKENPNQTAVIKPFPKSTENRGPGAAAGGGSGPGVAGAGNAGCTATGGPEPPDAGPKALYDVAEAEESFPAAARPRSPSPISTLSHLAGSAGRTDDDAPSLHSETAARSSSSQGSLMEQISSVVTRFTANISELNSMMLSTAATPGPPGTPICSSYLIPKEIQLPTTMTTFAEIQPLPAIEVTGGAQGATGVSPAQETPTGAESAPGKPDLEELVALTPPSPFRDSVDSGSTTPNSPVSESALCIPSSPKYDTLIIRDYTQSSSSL
Sequence of 5-HT2B (P41595 whole entry, species assumed): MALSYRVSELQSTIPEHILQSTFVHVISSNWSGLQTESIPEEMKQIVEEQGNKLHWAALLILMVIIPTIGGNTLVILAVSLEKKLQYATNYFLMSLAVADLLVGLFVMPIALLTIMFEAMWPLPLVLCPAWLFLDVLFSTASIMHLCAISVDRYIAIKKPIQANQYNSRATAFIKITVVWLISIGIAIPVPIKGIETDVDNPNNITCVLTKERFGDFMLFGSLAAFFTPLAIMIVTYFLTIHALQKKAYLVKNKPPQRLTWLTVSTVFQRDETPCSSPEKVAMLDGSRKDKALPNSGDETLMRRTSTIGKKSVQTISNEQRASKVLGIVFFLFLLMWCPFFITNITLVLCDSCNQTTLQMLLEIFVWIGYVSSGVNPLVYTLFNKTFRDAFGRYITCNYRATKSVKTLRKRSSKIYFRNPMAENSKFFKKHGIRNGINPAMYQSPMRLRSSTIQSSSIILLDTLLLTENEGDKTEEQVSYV

N[C@](CC1c2ccccc2Oc2ccccc21)(C(=O)O)[C@H]1C[C@@H]1C(=O)O [Compound 1]
inhibition of marble burying (marble burying [1]): previously shown to inhibit marble burying
efficacy in FST (immobility time [2]): efficacy

N[C@]1(C(=O)O)[C@H]2[C@@H](C[C@H]1OCc1ccc(Cl)c(Cl)c1)[C@]2(F)C(=O)O [Compound 2]
inhibition of marble burying (marble burying [1]): previously shown to inhibit marble burying
efficacy in FST (immobility time [2]): efficacy

COc1ccc(C#Cc2ccc(C(=O)N3CCC[C@@H](CO)C3)cc2)cc1 [Compound 7]
selectivity versus mGlu2 (rat mGlu2 [3]): > 15 fold

COc1ccc(C#Cc2ccc(C(=O)N3CCC[C@@H](O)C3)c(F)c2)cc1 [Compound 8]
mGlu2 activity (rat mGlu2 [3]): devoid of both mGlu2 and mGlu5 activity
mGlu5 activity (rat mGlu5 [4]): devoid of both mGlu2 and mGlu5 activity

C[C@@H]1CN(c2ccc(F)cc2)C(=O)c2cc(COc3ccccn3)nn21 [Compound 10]
mGlu2: inactive up to the top concentration tested (rat mGlu2 [5]): > 30 µM

C[C@@H]1CN(c2ccc(F)cc2)C(=O)c2cc(COc3ccc(F)cc3)nn21 [Compound 24]
half-life [6]: > 90 min
mGlu5 pEC50 (± SEM) (rat mGlu5 [7]): 7.03 ± 0.05
mGlu3 pIC50 (± SEM) (rat mGlu3 [8]): 6.34 ± 0.04

C[C@@H]1CN(c2ccc(F)cc2)C(=O)c2cc(COc3ccc(Cl)cn3)nn21 [Compound 48]
half-life [6]: ~120 min

C[C@@H]1CN(c2cc(F)cc(C#N)c2)C(=O)c2cc(COc3ccc(Cl)cn3)nn21 [Compound 99]
half-life [6]: > 180 min
rat CLhep [9]: 47.7 mL/min/kg
IC50 (rat mGlu3 [10]): 529 nM

C[C@@H]1CN(c2cccnc2F)C(=O)c2cc(COc3ccc(Cl)cn3)nn21 [Compound 106, (R)-2-(((5-Chloropyridin-2-yl)oxy)methyl)-5-(2-fluoropyridin-3-yl)-7-methyl-6,7-dihydropyrazolo[1,5-a]pyrazin-4(5H)-one]
estimated peak CNS unbound exposure (Mouse IP PK time course): 564 nM
significant responses (>50% inhibition of radioligand binding) in panel [11]: only a single significant response
inhibition of marble burying at highest dose (marble burying [12]): essentially complete inhibition
concentration at 30 min [13]: 2590 ± 290 nM
mGlu5 pEC50 (± SEM) (rat mGlu5 [7]): <4.5
5-HT2B functional activity: no activity up to (5-HT2B): > 10 µM
mGlu2: inactive up to the top concentration tested (rat mGlu2 [5]): > 30 µM
effect on the orthosteric agonist CRC, other mGlus (other mGlus): No significant effect
decrease in immobility time in FST (immobility time [14]): significant effects in decreasing immobility time
mGlu3 pIC50 (± SEM) (rat mGlu3 [8]): 6.41 ± 0.05

N#Cc1cc(C2=Nc3ccc(Br)cc3NC(=O)C2)ccn1 [Compound 111]
effect on the glutamate CRC (progressive fold-shift) (mGlu3): characteristic rightward shift and depressed glutamate maximum
